Here are results for six molecules from patent US11203753B2, “Hepcidin antagonists for use in the treatment of inflammation” (INSERM (INSTITUT NATIONAL DE LA SANTE ET DE LA RECHERCHE …, priority 2015, dated 2021).

One test deals with NF-kB pathway. The test can be described thus: Hepcidin-induced expression of CXCL1 and TNF-α in macrophages with pathway inhibitors. Type of test: cell-based, mouse. From the text:
Moreover, MyD88, a canonical adaptor for inflammatory signaling pathway, but not TLR4, was required for the hepcidin-triggered induction of CXCL1 and TNF-α. Indeed, macrophages isolated from TLR4−/− but not MyD88−/− mice were still able to mount an inflammatory response after addition of hepcidin.

The next test has as its system hepcidin expression. Kind of test: Hepcidin expression (Q-PCR) in mouse intestine and liver 7 h after ip injection of TLR agonists. The format is in vivo. The settings on record: WT mice. The procedure: Mice were ip injected with LPS (from E. coli O111:B4; 2 mg/kg), Zymosan A (from Saccharomyces cerevisiae, Sigma-Aldrich Z4250; 250 mg/kg), Poly:IC (Polyinosinic-polycytidylic acid sodium salt, Sigma-Aldrich P0913; 12.5 mg/kg), Flagellin (FLA-ST from Salmonella Typhimirium, InvivoGen, #12B06-MM; 1.5 mg/kg) or with a sterile saline solution (PBS) and sacrificed 7 hours later.
(§1) RNA extraction, reverse transcription, quantitative PCR and sequences of the primers used have been previously described^8. All samples were normalized to the threshold cycle value for cyclophilin-A.

Another test has as its target T1, Cxcr2 (Mus musculus, UniProt P35343).
T1 construct: Migration of WT bone marrow isolated neutrophils in response to hepcidin (1 μg/ml); endogenous in cells; host or cells: primary neutrophils isolated from bone marrow of WT mice (mixed C57BL6/129SV background)
T1 sequence (P35343 1-359): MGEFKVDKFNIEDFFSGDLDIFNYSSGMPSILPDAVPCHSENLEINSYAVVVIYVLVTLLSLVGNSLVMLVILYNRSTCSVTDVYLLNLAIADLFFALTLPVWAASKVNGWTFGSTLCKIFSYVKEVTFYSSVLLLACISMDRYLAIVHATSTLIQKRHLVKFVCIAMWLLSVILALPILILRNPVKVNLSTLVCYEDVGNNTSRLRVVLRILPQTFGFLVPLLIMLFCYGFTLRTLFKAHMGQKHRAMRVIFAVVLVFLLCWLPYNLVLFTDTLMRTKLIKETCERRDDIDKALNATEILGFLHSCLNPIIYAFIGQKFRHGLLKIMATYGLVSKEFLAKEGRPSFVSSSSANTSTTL
Kind of test: Neutrophil migration towards hepcidin in presence of Cxcr2 inhibitor. Type of test: cell-based. As to conditions: hepcidin 1 μg/ml. The method, then:
Migration of WT bone marrow isolated neutrophils in response to hepcidin (1 μg/ml) in presence or not of the Cxcr2 inhibitor (sb225002, Sigma-Aldrich). n=3. mean+/−s.e.m.
(§2) Neutrophil migration was assessed using transwell (3 μm; BD-Falcon) coated with 10 μg/ml fibronectin (# F1141, Sigma-Aldrich). The cells (5×10^5/well) were diluted in 700 μL DMEM+10% SVF and migration towards hepcidin (Peptide International) in the bottom well was allowed for 2 hours at 37° C. The resulting migrated cells recovered from the bottom well were counted using hemocytometer.

Test [1] concerns macrophages. The test can be described thus: Inflammatory gene expression (Q-PCR) in macrophages incubated with hepcidin-25. Type of test: cell-based, mouse. The procedure: a, Flow cytometry analysis of neutrophils in lamina propria of WT and KO mice. Left: Representative experiment with Ly6G^+ Ly6C^low cells shown after gating on CD45^+CD11b^+ cells; Right: pool of four experiments (mean+/−s.e.m; *p<0.05). b, Migration of WT bone marrow isolated neutrophils in response to hepcidin-25. (3 experiments performed in triplicate; mean+/−s.e.m; *p<0.05). c, CXCL1, CXCL2, IL-1beta, iNOS mRNA levels in macrophages incubated for 1 or 3 hours with 1 μg/ml, 10 μg/ml Hepcidin-25 or PBS (control). d, Immunohistochemistry using anti-mouse iNOS antibody on intestine of WT and Hepc^Δint mice upon PBS or LPS injection.
The gastrointestinal tract contains the largest reservoir of macrophages in the organism^17. Besides its proper chemoattractant property, the inventors hypothesized that hepcidin may influence the production of chemokines by the macrophages. Macrophages were incubated with hepcidin-25 at different time points (30 min, 1 h, 3 h, 24 h, 48 h).
as §1

For test [2], the system named is WT bone marrow isolated neutrophils. The test can be described thus: Neutrophil migration assay (transwell) towards hepcidin. The format is cell-based, mouse. The procedure: Bone marrows from WT mice were flushed from femurs and tibias with PBS using a 25 G needle. Tissues were homogenized through a 18 G needle and the suspension was passed through 70 μm and 40 μm cell strainers. Cells were centrifuged at 400 g for 10 min and resuspended in cold MACS buffer (PBS, BSA 0.5%, EDTA 2 mM, pH 7.4). After counting, cells were incubated on ice with FcBlock™ for 10 min, anti-Ly6C for 15 min and anti-biotin antibody microbeads for 15 min, following the manufacturer's instructions. Cells were washed with MACS buffer and centrifuged at 400 g for 10 min. Neutrophils were immuno-magnetically separated following filtration of the cell suspension through an LS column (Miltenyi) according to manufacturer's instructions.
as §2

Test [3] relates to Raw 264.7 (ATCC TIB-71) murine macrophage cell line. Kind of test: CXCL2 and TNF-α expression (Q-PCR) in serum starved Raw 264.7 macrophages with Hepc-25. Type of test: cell-based. The procedure: FIG. 9: Serum starvation enhances the proinflammatory action of Hepc-25 in macrophages. Expression by Q-PCR of CXCL2 and TNF-α in Raw 264.7 (ATCC® TIB-71™) murine macrophage cell line serum starved or not for 1 hour before the addition of 10 μg/ml of Hepc-25 (Peptide International) for an additional hour. N=3 per group; mean+/−s.e.m. Statistical analysis by a two-way analysis of variance (ANOVA) followed by a Bonferroni posttest. **p<0.01; ***p<0.001.
Expression by Q-PCR of CXCL2 in Raw 264.7 (ATCC® TIB-71™) murine macrophage cell line serum starved for 1 hour or not before the addition of 1 or 10 μg/ml of Hepc-25 (Peptide International) for an additional hour. N=3 per group; mean+/−s.e.m. Statistical analysis by a two-way analysis of variance (ANOVA) followed by a Bonferroni posttest. **p<0.01; ****p<0.0001.

For test [4], the system named is macrophages. Kind of test: CXCL1 and TNF-α protein accumulation by macrophages following hepcidin treatment. Type of test: cell-based, mouse. As to conditions: at 7 hours. The method, then:
Kinetic response of macrophage-derived CXCL1 and TNF-α following hepcidin treatment was further determined. […] Massive protein accumulation of CXCL1 and TNF-α reached respectively 300 and 150 pg/ml at 7 hours (Data not shown). Hepcidin stimulated IL-1beta, IL-6 and iNOS expression with a maximal induction at 3 hours with 10 μg/ml hepcidin (FIG. 2c) while the peak of TNF-alpha and Cox-2 expression occurred after 1 hour of hepcidin treatment. AMPs, such as LL37, typically function in this high concentration range^18,19 to induce proinflammatory molecules^20,21. This allows the production of inflammatory mediators in pathological conditions where AMPs concentrations can reach high values^18,19 and not in healthy tissues where inflammatory damage might otherwise harm host cells.

The subject of test [5] is Caco-2 intestinal cell line. Kind of test: Addition of synthetic mature hepcidin to Caco-2 intestinal cell line. Type of test: cell-based. The settings on record: basolateral or apical side.

Some results are limits rather than exact numbers.

Consider `CC(C)(C)c1ccc(S(=O)(=O)/C=C/C#N)cc1` [BAY 7085], for which the “hepcidin-induced expression of CXCL1 and TNF-α” value in the test with NF-kB pathway is “strongly blunted”.

For the molecule “Polyinosinic-polycytidylic acid sodium salt [poly:IC]”, the “hepcidin expression in the intestine” value in the test on hepcidin expression is recorded as “induced”.

Regarding `Cc1ccc(S(=O)(=O)/C=C/C#N)cc1` [BAY 7082], the “hepcidin-induced expression of CXCL1 and TNF-α” value in the test on NF-kB pathway was “strongly blunted”.

Take `O=C(Nc1ccc([N+](=O)[O-])cc1O)Nc1ccccc1Br` [sb225002]: the “neutrophil migration towards hepcidin” value at Cxcr2 is given as “prevents neutrophil migration”.

For “hepcidin: synthetic mature 25 amino acid hepcidin peptide (Peptide International)”, in the test with macrophages [1], the “expression of the iron-responsive gene TfR1” value is reported as “unchanged”; the “time of peak of TNF-alpha and Cox-2 expression” value worked out at 1 h; the “time of peak of transient CXCL1 and TNF-α mRNA induction” value came out at 1 h. Besides, the “expression of CXCL-1 and CXCL2” value in the test with macrophages [1] (1 μg/ml hepcidin, 1 hour) is “slightly increased”. The “time of maximal induction of IL-1beta, IL-6 and iNOS expression” value in the test with macrophages [1] (10 μg/ml hepcidin) is 3 h. Also, the “expression of CXCL-1 and CXCL2” value with macrophages [1] (10 μg/ml hepcidin, 1 hour) is “maximally induced”. The “fold change of genes statistically induced (TNF-α, CXCL1, CXCL2, NF-kappa-B inhibitor zeta, Mir-146)” value with macrophages [1] (1 hour) was above 2. For the same molecule, the migration of neutrophils result in test [2] (bimodal dose response) is recorded as “induced a dose-dependent migration of neutrophils”. The “dose of peak response of neutrophil migration” value in test [2] (migration 2 hours at 37° C.) is 0.1 µg/mL. Moreover, in test [3] (1 μg/ml, serum starvation 1 hour, 1 additional hour), the “expression of Cxcl2” value is “robust expression”. In addition, in test [3] (serum-free conditions versus not starved), the “stimulatory effect on macrophage-mediated cytokine release” value is reported as “clearly enhanced”. In the test with macrophages [4], this molecule came in with a CXCL1 protein accumulation of 300 pg/mL and a TNF-α protein accumulation of 150 pg/mL. Also, the iNOS expression result in test [5] was “did not induce”.

B1: flagellin: FLA-ST from Salmonella Typhimirium, agonist of TLR5 (protein, UniProt P06179 2-495, looked up)
Flagellin: AQVINTNSLSLLTQNNLNKSQSALGTAIERLSSGLRINSAKDDAAGQAIANRFTANIKGLTQASRNANDGISIAQTTEGALNEINNNLQRVRELAVQSANSTNSQSDLDSIQAEITQRLNEIDRVSGQTQFNGVKVLAQDNTLTIQVGANDGETIDIDLKQINSQTLGLDTLNVQQKYKVSDTAATVTGYADTTIALDNSTFKASATGLGGTDQKIDGDLKFDDTTGKYYAKVTVTGGTGKDGYYEVSVDKTNGEVTLAGGATSPLTGGLPATATEDVKNVQVANADLTEAKAALTAAGVTGTASVVKMSYTDNNGKTIDGGLAVKVGDDYYSATQNKDGSISINTTKYTADDGTSKTALNKLGGADGKTEVVSIGGKTYAASKAEGHNFKAQPDLAEAAATTTENPLQKIDAALAQVDTLRSDLGAVQNRFNSAITNLGNTVNNLTSARSRIEDSDYATEVSNMSRAQILQQAGTSVLAQANQVPQNVLSLLR
Consider B1, for which the “hepcidin expression in the intestine” value in the test on hepcidin expression is “induced”.
